According to article PMC7031696 (Cell chemical biology, 2019):
Where two headings read alike, the source gives them in different places.

What was measured:
[1] = tested on: Plasmodium falciparum 3D7-A10 parasites; experiment: Stage specificity assay (8-h exposure of synchronized stages, IC50^8h); assay type: cell-based; conditions: for IC50: Plasmodium falciparum
[2] = tested on: asynchronous 3D7-A10 parasite cultures; experiment: Standard 72-h exposure asexual blood stage susceptibility assay (IC50^72h); assay type: cell-based, Plasmodium falciparum; conditions: Plasmodium falciparum, 3D7, 72 h, read-out: Overall (72hr assay) Mean IC50 (IC50^72h)
[3] = tested on: 3D7-MR4 trophozoite parasite-infected RBCs; experiment: Metabolomic profiling (hydrophilic metabolite changes, UHPLC-MS); assay type: cell-based, Plasmodium falciparum
[4] = tested on: 3D7-A10 or Dd2-B2 parasites; conditions: 3 × IC50^72h drug concentrations; ref Phillips et al., 2015; cited from earlier work

O=C1C(O)=C([C@H]2CC[C@H](c3ccc(Cl)cc3)CC2)C(=O)c2ccccc21 [Atovaquone, reference compound]
overall activity profile (stages on which active) ([1]; 8-h exposures): activity against late trophozoites only | killing in stage specificity assay ([1]; 8-h exposures, survival curves): incomplete killing | IC50 ([1]; 3D7, read-out: Early rings Mean IC50, shift 2): 553 nM | IC50 ([1]; 3D7, read-out: Early trophozoites Mean IC50, shift 1): 0.68 nM | IC50 ([1]; 3D7, read-out: Early trophozoites Mean IC50, shift 2): 619 nM | IC50 ([1]; 3D7, read-out: Late rings Mean IC50, shift 2): 324 nM | IC50 ([1]; 3D7, read-out: Late trophozoites Mean IC50, shift 1): 3.7 nM | IC50 ([1]; 3D7, read-out: Schizonts IC50, shift 2): > 25000 nM | IC50 ([1]; 3D7, read-out: Schizonts Mean IC50, shift 1): 7.4 nM | shape of survival curve ([1]; early trophozoite and schizont stages): biphasic survival curve | Stage of peak activity (Figure 6) ([1]; period when the parasite was most susceptible (lowest IC50^8h)): late trophozoite stages | Peak Activity (Table S1) ([1]; stage(s) with the lowest IC50^8h): Late Trophs | IC50 [2]: 1.1 nM | Log2(fold change) Myristoyl/tetradecanoyl-CoA [3]: -0.0411 | Log2(fold change) Octoluse 8/1P [3]: 0.0910 | Log2(fold change) succinate/Methylmalonic acid [3]: -0.8517 | Log2(fold change) succinyl-CoA/methylmalonyl-CoA [3]: -0.2938 | Log2(fold change) threonine/homoserine [3]: 0.0177 | metabolic signature: increases in the pyrimidine precursors dihydroorotate and N-carbamoyl-L-aspartate (mETC disruption) ([3]; 10 × IC50^72h, 2.5 hr, trophozoites): observed | Log2(fold changes) 3-phosphoglycerate ([3]; metabolite 3-phosphoglycerate, log2 fold change): -0.1329 | Log2(fold changes) 4-Pyridoxic acid ([3]; metabolite 4-Pyridoxic acid, log2 fold change): 0.0014 | Log2(fold changes) 4-aminobutyrate ([3]; metabolite 4-aminobutyrate, log2 fold change): 0.1923 | Log2(fold changes) 4-phosphopantetheine ([3]; metabolite 4-phosphopantetheine, log2 fold change): 0.0048 | Log2(fold changes) 4-phosphopantothenate ([3]; metabolite 4-phosphopantothenate, log2 fold change): -0.3512 | Log2(fold changes) 5-aminopentanoic acid ([3]; metabolite 5-aminopentanoic acid, log2 fold change): -0.0149 | Log2(fold changes) 5-methyl-THF ([3]; metabolite 5-methyl-THF, log2 fold change): -0.0146 | Log2(fold changes) 5-phosphoribosyl-1-pyrophosphate ([3]; metabolite 5-phosphoribosyl-1-pyrophosphate, log2 fold change): -0.1198 | Log2(fold changes) 6-phospho-D-gluconate ([3]; metabolite 6-phospho-D-gluconate, log2 fold change): 0.0051 | Log2(fold change) HVDD ([3]; metabolite HVDD): 0.0262 | Log2(fold change) Hydroxyisocaproic acid ([3]; metabolite Hydroxyisocaproic acid): -0.0150 | Log2(fold change) IDP ([3]; metabolite IDP): 0.0185 | Log2(fold change) IMP ([3]; metabolite IMP): 0.1599 | Log2(fold change) Inositol ([3]; metabolite Inositol): 0.0000 | Log2(fold change) Isopentyl-PP ([3]; metabolite Isopentyl-PP): -0.0191 | Log2(fold change) L-arginino-succinate ([3]; metabolite L-arginino-succinate): 0.1909 | Log2(fold change) LD ([3]; metabolite LD): 0.1960 | Log2(fold change) N-Acetyl-L-alanine ([3]; metabolite N-Acetyl-L-alanine): -0.3227 | Log2(fold change) N-acetyl-L-ornithine ([3]; metabolite N-acetyl-L-ornithine): 0.1921 | Log2(fold change) N-acetyl-glucosamine-1/6-phosphate ([3]; metabolite N-acetyl-glucosamine-1/6-phosphate): 0.3531 | Log2(fold change) N-acetyl-glutamate ([3]; metabolite N-acetyl-glutamate): 0.0422 | Log2(fold change) N-acetyl-glutamine ([3]; metabolite N-acetyl-glutamine): -0.1228 | Log2(fold change) N-carbamoyl-L-aspartate ([3]; metabolite N-carbamoyl-L-aspartate): 2.7565 | Log2(fold change) NAD+ ([3]; metabolite NAD+): -0.0365 | Log2(fold change) NADH ([3]; metabolite NADH): -0.0409 | Log2(fold change) NADP+ ([3]; metabolite NADP+): 0.1141 | Log2(fold change) NADPH ([3]; metabolite NADPH): -0.0085 | Log2(fold change) O-acetyl-L-serine ([3]; metabolite O-acetyl-L-serine): 0.0000 | Log2(fold change) Octoluse Bisphosphate ([3]; metabolite Octoluse Bisphosphate): -0.0867 | Log2(fold change) PD ([3]; metabolite PD): 0.2066 | Log2(fold change) PE ([3]; metabolite PE): 0.2833 | Log2(fold change) PEE ([3]; metabolite PEE): 0.1525 | Log2(fold change) PEEK ([3]; metabolite PEEK): 0.2544 | Log2(fold change) PVNF ([3]; metabolite PVNF): -0.1256 | Log2(fold change) Pyroglutamic acid ([3]; metabolite Pyroglutamic acid): -0.4514 | Log2(fold change) Pyrophosphate ([3]; metabolite Pyrophosphate): -0.0311 | Log2(fold change) Ribose-5-phosphate ([3]; metabolite Ribose-5-phosphate): -0.0776 | Log2(fold change) S-adenosyl-L-homocysteine ([3]; metabolite S-adenosyl-L-homocysteine): -0.0546 | Log2(fold change) S-adenosyl-L-methioninamine ([3]; metabolite S-adenosyl-L-methioninamine): 0.0342 | Log2(fold change) S-adenosyl-L-methionine ([3]; metabolite S-adenosyl-L-methionine): 0.0000 | Log2(fold change) S-methyl-5'-thioadenosine ([3]; metabolite S-methyl-5'-thioadenosine): 0.1207 | Log2(fold change) SD ([3]; metabolite SD): 0.1611 | Log2(fold change) SDL ([3]; metabolite SDL): 0.0455 | Log2(fold change) SID ([3]; metabolite SID): 0.0448 | Log2(fold change) Sedoheptulose bisphosphate ([3]; metabolite Sedoheptulose bisphosphate): -0.0991 | Log2(fold change) Thiamine pyrophosphate ([3]; metabolite Thiamine pyrophosphate): 0.0203 | Log2(fold changes) UDP-D-glucose ([3]; metabolite UDP-D-glucose, log2 fold change): 0.0102 | Log2(fold changes) UDP-D-glucuronate ([3]; metabolite UDP-D-glucuronate, log2 fold change): -0.0044 | Log2(fold changes) UDP-N-acetyl-glucosamine ([3]; metabolite UDP-N-acetyl-glucosamine, log2 fold change): -0.2854 | Log2(fold changes) UDP ([3]; metabolite UDP, log2 fold change): -1.0636 | Log2(fold changes) UMP ([3]; metabolite UMP, log2 fold change): -0.5975 | Log2(fold changes) UTP ([3]; metabolite UTP, log2 fold change): -1.2395 | Log2(fold change) hydroxyphenylpyruvate ([3]; metabolite hydroxyphenylpyruvate): 0.0147 | Log2(fold change) hydroxyproline/Aminolevulinate ([3]; metabolite hydroxyproline/Aminolevulinate): -0.0689 | Log2(fold change) hypoxanthine ([3]; metabolite hypoxanthine): -0.2575 | Log2(fold change) indole ([3]; metabolite indole): -0.1736 | Log2(fold change) inosine ([3]; metabolite inosine): -0.1123 | Log2(fold change) isoleucine ([3]; metabolite isoleucine): -0.2949 | Log2(fold change) lactate ([3]; metabolite lactate): -0.5142 | Log2(fold change) leucine ([3]; metabolite leucine): -0.2842 | Log2(fold change) lysine ([3]; metabolite lysine): 0.3188 | Log2(fold change) malate ([3]; metabolite malate): -0.2336 | Log2(fold change) maleic acid ([3]; metabolite maleic acid): -0.1204 | Log2(fold change) methionine ([3]; metabolite methionine): -0.2848 | Log2(fold change) myo-inositol ([3]; metabolite myo-inositol): -0.2098 | Log2(fold change) nicotinamide mononucleotide ([3]; metabolite nicotinamide mononucleotide): -0.0768 | Log2(fold change) nicotinate ([3]; metabolite nicotinate): -0.1572 | Log2(fold change) ornithine ([3]; metabolite ornithine): 0.0045 | Log2(fold change) orotate ([3]; metabolite orotate): 0.1233 | Log2(fold change) orotidine-5'-phosphate ([3]; metabolite orotidine-5'-phosphate): -0.3697 | Log2(fold change) oxaloacetate ([3]; metabolite oxaloacetate): -0.0126 | Log2(fold change) p-aminobenzoate ([3]; metabolite p-aminobenzoate): -0.0050 | Log2(fold change) p-hydroxybenzoate ([3]; metabolite p-hydroxybenzoate): 0.0562 | Log2(fold change) pantothenate ([3]; metabolite pantothenate): -0.2044 | Log2(fold change) phenylalanine ([3]; metabolite phenylalanine): -0.3684 | Log2(fold change) phenylpyruvate ([3]; metabolite phenylpyruvate): 0.0000 | Log2(fold change) phosphoenolpyruvate ([3]; metabolite phosphoenolpyruvate): -0.0614 | Log2(fold change) prephenate ([3]; metabolite prephenate): -0.0378 | Log2(fold change) proline ([3]; metabolite proline): -0.1933 | Log2(fold change) pyridoxine ([3]; metabolite pyridoxine): -0.3758 | Log2(fold change) pyruvate ([3]; metabolite pyruvate): -0.8812 | Log2(fold change) riboflavin ([3]; metabolite riboflavin): -0.0986 | Log2(fold change) ribose ([3]; metabolite ribose): -0.0745 | Log2(fold change) ribose-phosphate ([3]; metabolite ribose-phosphate): -0.1162 | Log2(fold change) ribulose-5-phosphate ([3]; metabolite ribulose-5-phosphate): -0.1031 | Log2(fold change) serine ([3]; metabolite serine): 0.0478 | Log2(fold change) sn-glycerol-3-phosphate ([3]; metabolite sn-glycerol-3-phosphate): 0.1848 | Log2(fold change) taurine ([3]; metabolite taurine): 0.0315 | Log2(fold change) thiamine ([3]; metabolite thiamine): -0.0450 | Log2(fold change) thymidine ([3]; metabolite thymidine): -0.1873 | Log2(fold changes) thymine ([3]; metabolite thymine, log2 fold change): 0.0000 | Log2(fold changes) trehalose-6-Phosphate ([3]; metabolite trehalose-6-Phosphate, log2 fold change): 0.0905 | Log2(fold changes) tryptophan ([3]; metabolite tryptophan, log2 fold change): -0.2480 | Log2(fold changes) tyrosine ([3]; metabolite tyrosine, log2 fold change): -0.2052 | Log2(fold changes) uridine ([3]; metabolite uridine, log2 fold change): -0.2906 | minimum inoculum for resistance [4]: 2 × 10^7 parasites
